Test results reported in patent US20050209157A1, “Short bioactive peptides and methods for their use” (priority 2001, published 2005).
Read-outs that look alike come from different tables or passages of the source. No end group written: not given here.

What was measured:
[1] = tested on: yeast (Saccharomyces cerevisiae); experiment: Antimicrobial assay I, yeast assay in RPMI 1640; type: cell-based; settings: RPMI 1640 media
in vitro [2] = type: cell-based, human; settings: human, human red blood cells, pH 7, hemolytic assay, concentration at 50% hemolysis, 1 hour at 37° C.; read-out: LD50
S. pneumoniae C719 = experiment: Antimicrobial assays II, NCCLS broth microdilution MIC; type: cell-based, Streptococcus pneumoniae; settings: mean of three, in µg/mL
S. aureus (MRSA) = type: cell-based, Staphylococcus aureus; settings: mean of three; 16 to 20 hours at 35° C.
S. pyogenes M76 = experiment: Antimicrobial assays II, NCCLS broth microdilution MIC; type: cell-based, Streptococcus pyogenes; settings: mean of three; 16 to 20 hours at 35° C.
in vitro [3] = settings: human, WI38 normal lung fibroblast cells, LD50 WI38, WI38 normal lung fibroblast line, MTT, 24 hours with peptide
MCF7 = experiment: Anti-cancer assay, MTT, LD50; type: cell-based; settings: MCF7 breast adenocarcinoma line, MTT, 24 hours with peptide
From the text: (§1) Numbers are LD50 values (μg/mL).

HeLaS3 = experiment: Anti-cancer assay, MTT, LD50; type: cell-based; settings: 24 hours with peptide, cervical carcinoma
From the text: as §1

BMKC = experiment: Anti-cancer assay, MTT, LD50; type: cell-based; settings: BMKC cloned melanoma line, 24 hours with peptide
From the text: as §1

WI38 = settings: MTT, 24 hours with peptide; normal fibroblast line
[4] = tested on: Staphylococcus aureus ATCC 6538; experiment: Antimicrobial assay I, MIC by OD measurement; type: cell-based; settings: 37° C. for 24 hours, absorbance 620 nm
[5] = tested on: Pseudomonas aeruginosa ATCC 9027; experiment: Antimicrobial assay I, MIC by OD measurement; type: cell-based; settings: 37° C. for 24 hours, absorbance 620 nm
S. pyogenes ATCC19615 = experiment: Antimicrobial assays II, NCCLS broth microdilution MIC; type: cell-based, Streptococcus pyogenes; settings: mean of three, in µg/mL
S. epidermidis C621 = type: cell-based, Staphylococcus epidermidis; settings: mean of three; 16 to 20 hours at 35° C.
S. pneumoniae C718 = experiment: Antimicrobial assays II, NCCLS broth microdilution MIC; type: cell-based, Streptococcus pneumoniae; settings: mean of three
laminin = experiment: Laminin stimulation, ELISA on fibroblast cell lines; type: cell-based
Procedure: (§2) Fibroblast cell lines were cultured under standard conditions and assayed for collagen and laminin using an ELISA system manufactured by Panvera (Madison, Wis.). Antibodies for collagen and laminin manufactured by Takara Shuzo Co., Ltd Japan. […] The other three peptides tested neither stimulated nor inhibited production (i.e. no effect was observed).

collagen = experiment: Collagen stimulation, ELISA on fibroblast cell lines; type: cell-based
Procedure: as §2

[6] = tested on: human red blood cells (RBC); experiment: in vitro; type: cell-based; settings: hemolytic assay, concentration at 50% hemolysis, 1 hour at 37° C.
PC3 = experiment: Anti-cancer assay, MTT, LD50; type: cell-based; settings: 24 hours with peptide, prostate adenocarcinoma
From the text: as §1

H1299 = experiment: Anti-cancer assay, MTT, LD50; type: cell-based; settings: 24 hours with peptide, lung large cell carcinoma
From the text: as §1

SW480 = experiment: Anti-cancer assay, MTT, LD50; type: cell-based; settings: SW480 colon adenocarcinoma line, 24 hours with peptide
From the text: as §1

[7] = tested on: clinical tobramycin resistant strain 960890198-3c; experiment: Activity against drug resistant strains; type: cell-based; settings: for activity against tr Pseudomonas 960890198-3c: clinical tobramycin resistant strain, Table 47; for activity against clinical tobramycin resistant strain: strain 960890198-3c
Procedure: (§3) Peptides were assayed for their activity against tobramycin sensitive and resistant strains.

[8] = tested on: tobramycin sensitive (ts) Pseudomonas ATCC 27853; experiment: Activity against drug resistant strains; type: cell-based; settings: tobramycin sensitive strain
Procedure: as §3

[9] = tested on: tobramycin resistant (tr) Pseudomonas ATCC 13096; experiment: Activity against drug resistant strains; type: cell-based; settings: for activity against tobramycin resistant versus tobramycin sensitive Pseudomonas: ATCC 13096 (tr) compared with ATCC 27853 (ts); for activity against tr Pseudomonas 13096: tobramycin resistant strain, Table 46
Procedure: as §3

P. aeruginosa 27853 = experiment: Synergy between doxacycline and peptides, MBC; type: cell-based, Pseudomonas aeruginosa; settings: for MBC, With doxacycline: doxacycline held at 10 ppm; for MBC, Without doxacycline: peptide alone
From the text: Synergy between doxacycline and various peptides was investigated against P. aeruginosa 27853. The following table illustrates the beneficial effects of combining doxacycline and the peptides, where the numbers are the minimum bactericidal concentration (MBC; μg/mL). When combined with the peptides, the doxacycline was held at 10 ppm concentration.

Escherichia coli 25922 = experiment: microbe, parasite or virus in culture
From the text: Synergy between peptide Shiva-10 (SEQ ID NO:4) and various antimicrobial agents was investigated against Escherichia coli 25922.
Synergy between tetracycline and various peptides was investigated against Escherichia coli 25922 MBC. […] When combined with the peptides, the concentration of tetracycline was held at 1.5 ppm.

P. aeruginosa = type: cell-based, Pseudomonas aeruginosa; settings: P. aeruginosa H744; MIC of nalidixic acid with peptide at ¼ MIC
Method in brief: (§4)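 Efflux-mutant strains were tested with two-fold serial dilutions of chloramphenicol or nalidixic acid, alone and with peptide held at ¼ of its own MIC.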

P. aeruginosa H774 = type: cell-based, Pseudomonas aeruginosa; settings: P. aeruginosa H744; nalidixic acid + peptide at ¼ MIC; 0.5 or less = synergy
Method in brief: as §4

P. aeruginosa H374 = type: cell-based, Pseudomonas aeruginosa; settings: for FIC Index: 0.5 or less = synergy
Method in brief: as §4

Compound | yeast (MIC or MFC) [1] | HC50 at 1 h (in vitro [2]) [µg/mL] | CC50 at 24 h (in vitro [3]) [µg/mL] | LD50 MCF7 (MCF7) [µg/mL] | HeLaS3 LD50 (HeLaS3) | LD50 BMKC (BMKC) [µg/mL] | WI38 LD50 (WI38) [µg/mL] | staph6538 (MIC) [4] [µg/mL] | paerug9027 (MIC) [5] | Collagen stimulation (collagen) [%] | PC3 LD50 (PC3) [µg/mL] | H1299 LD50 (H1299) [µg/mL] | LD50 SW480 (SW480) [µg/mL] | activity against clinical tobramycin resistant strain [7] | activity against ts Pseudomonas 27853 ([8]; Table 46) | activity against tobramycin resistant versus tobramycin sensitive Pseudomonas [9] | activity against tr Pseudomonas 13096 [9] | other results
FAKLLALALKLKL-NH2 [P94] | > (> indicates greater than 200 μg/mL) | 350 | 6 | 65 | > (> indicates greater than 1000) | 11 | 6 | 10 | > (> indicates greater than 200 μg/mL) | 0 |  |  |  |  |  |  |  | S. pneumoniae MIC (S. pneumoniae C719): 128; S. aureus (MRSA) MIC (S. aureus (MRSA)): 16 µg/mL; S. pyogenes M76 MIC (S. pyogenes M76): 8 µg/mL; S. pyogenes MIC (S. pyogenes ATCC19615): 8; S. epidermidis C621 MIC (S. epidermidis C621): 8 µg/mL; S. pneumoniae MIC (S. pneumoniae C718): 64 µg/mL; Laminin stimulation (laminin): 0%
FAKKLAKKLAKAL-NH2 [P74, FAKKLAKKLAKAL-NH2] | 100 µg/mL |  | 335 | 465 | 260 µg/mL | 460 | 335 | 15 | 5 µg/mL |  | 660 | 670 | 340 | greater activity against clinical tobramycin resistant strain 960890198-3c | 125 | greater activity against tobramycin resistant (tr) Pseudomonas ATCC 13096 than against tobramycin sensitive (ts) Pseudomonas ATCC 27853 | 16 | LD50 [6]: > (> indicates greater than 1000); activity against tr Pseudomonas 960890198-3c [7]: 25; activity against ts Pseudomonas 27853 ([8]; Table 47): 125
FAKLLAKLAKKIL-NH2 [P125] | 50 µg/mL |  | 90 | 90 | 220 µg/mL | 220 | 90 | 10 | 100 µg/mL |  | 145 | 76 | 125 | greater activity against clinical tobramycin resistant strain 960890198-3c | 31 | greater activity against tobramycin resistant (tr) Pseudomonas ATCC 13096 than against tobramycin sensitive (ts) Pseudomonas ATCC 27853 | 4 | LD50 [6]: > (> indicates greater than 1000)
C[C@H]1c2cccc(O)c2C(O)=C2C(=O)[C@]3(O)C(O)=C(C(N)=O)C(=O)[C@@H](N(C)C)[C@@H]3[C@@H](O)[C@@H]21 [Doxacycline] |  |  |  |  |  |  |  |  |  |  |  |  |  |  |  |  |  | MBC of doxacycline (P. aeruginosa 27853; doxacycline itself, printed in column With doxacycline): 100 µg/mL
MPKWKVFKKIEKVGRNIRNGIVKAGPAIAVLGEAKALG-OH [SB-37 (P5; SEQ ID NO: 3)] |  |  |  |  |  |  |  |  |  |  |  |  |  |  |  |  |  | MBC, With doxacycline (P. aeruginosa 27853): 30 µg/mL; MBC, Without doxacycline (P. aeruginosa 27853): 200 µg/mL
CC(C)C[C@H](NC(=O)[C@H](C)NC(=O)[C@H](CC(C)C)NC(=O)[C@H](CCCCN)NC(=O)[C@H](C)NC(=O)[C@H](CC(C)C)NC(=O)[C@H](CCCCN)NC(=O)[C@H](CCCCN)NC(=O)[C@H](C)NC(=O)[C@H](CC(C)C)NC(=O)[C@H](CCCCN)NC(=O)[C@H](C)NC(=O)[C@H](CC(C)C)NC(=O)[C@H](CCCCN)NC(=O)[C@H](CCCCN)NC(=O)[C@H](C)NC(=O)[C@@H](N)Cc1ccccc1)C(N)=O [FLAK 26AM (P35; SEQ ID NO: 17)] |  |  |  |  |  |  |  |  |  |  |  |  |  |  |  |  |  | MBC, Without tetracycline (Escherichia coli 25922; peptide alone): 50 µg/mL; MBC, With tetracycline (Escherichia coli 25922; tetracycline held at […]): 20 µg/mL; MBC, With doxacycline (P. aeruginosa 27853): 32 µg/mL; MBC, Without doxacycline (P. aeruginosa 27853): 50 µg/mL
FAKLLKLAAKKLL-NH2 [P56] | 50 µg/mL | 600 | 250 | 500 | 300 µg/mL | 205 | 250 | 200 | 5 µg/mL |  | 435 | 370 | 215 | greater activity against clinical tobramycin resistant strain 960890198-3c | 125 | greater activity against tobramycin resistant (tr) Pseudomonas ATCC 13096 than against tobramycin sensitive (ts) Pseudomonas ATCC 27853 | 16 | MIC Nal-comb. (P. aeruginosa): 624 µg/mL; FIC Index (P. aeruginosa H774): 1.25; MIC Cm-comb. (P. aeruginosa H374; MIC of chloramphenicol with peptide at ¼ MIC): 16 µg/mL; MIC Nal-comb. (P. aeruginosa H374; MIC of nalidixic acid with peptide at ¼ MIC): 2500 µg/mL; FIC Index (P. aeruginosa H374; chloramphenicol + peptide at ¼ MIC): 1.25; FIC Index (P. aeruginosa H374; nalidixic acid + peptide at ¼ MIC, FIC=0.25+MIC comb/MIC alone): 0.75; activity against tr Pseudomonas 960890198-3c [7]: >50; activity against ts Pseudomonas 27853 ([8]; Table 47): 125
FALALKALKKL-NH2 [P165] | 25 µg/mL | 350 | 470 | 360 | 400 µg/mL | 240 | 470 | 10 | 25 µg/mL | 0 | 340 | 56 | 240 |  |  |  |  | Laminin stimulation (laminin): 0%
TGFβ |  |  |  |  |  |  |  |  |  | 60 |  |  |  |  |  |  |  | 
